Key:
[1] = test system: influenza A virus A/342/2009 (H1N1; oseltamivir-resistant); format: cell-based
[2] = molecular target: neuraminidase of influenza A virus A/342/2009 (H1N1, oseltamivir resistant) (UniProt P03468); format: biochemical

Row | SMILES | 90% inhibitory concentration, A/342/2009 [1] | 95% inhibitory concentration (values in parentheses), A/342/2009 [1] | 50% inhibitory concentration higher compared to zanamivir [2] [fold]
1 | CCC(CC)O[C@@H]1C=C(C(=O)O)C[C@H](NC(=N)N)[C@H]1NC(C)=O [Compound 9, (3R,4R,5S)-4-acetamido-5-(N-guanidino)-3-(1-ethylpropoxy)cyclohex-1-en-1-carboxylic acid] | 3.0 (14.2) μM | 3.0 (14.2) μM | 
2 | CCC(CC)O[C@@H]1C=C(C(=O)O)C[C@H](NC(C)=N)[C@H]1NC(C)=O [Compound 3] | 16.0 (22.3) μM | 16.0 (22.3) μM | 50
3 | CCOC(=O)C1=C[C@@H](OC(CC)CC)[C@H](NC(C)=O)[C@@H](N)C1 [Oseltamivir, (3R,4R,5S)-4-acetamido-5-amino-3-(1-ethylpropoxy)cyclohex-1-en-1-carboxylic acid ethyl ester, reference compound] | resistant |  | 
